Here are results for 35 molecules from ChEMBL document CHEMBL5344462, “Novel-Type GABAB PAMs: Structure-Activity Relationship in Light of the Protein Structure” (ACS Med Chem Lett, 2024).

The assay is described as follows: Positive allosteric modulator activity at rat cortical membrane GABA-B receptor incubated for 60 min by [35S]GTPgammaS binding assay. Type of assay: cell membranes, Cortex.
`Cc1cc(N2CCCCC2C(N)=O)n2nc(-c3ccc(Cl)cc3)cc2n1` (racemic): the pEC50 turned out to be 6.55. `CCOC(=O)C1CCCN(c2cc(C)nc3cc(-c4ccc(Cl)cc4)nn23)C1` (racemic) came in with a pEC50 of 5.85. The molecule `CSc1c(C)nc2cc(-c3ccc(Cl)cc3)nn2c1N1CCC[C@H](C(=O)O)C1` returned a pEC50 of 6.75. The same measure for `COc1c(C)nc2cc(-c3ccc(Cl)cc3)nn2c1N1CCCC(C(=O)O)C1` (racemic): 5.69. The molecule `Cc1nc2cc(-c3ccc(Cl)cc3)nn2c(N2CCOCC2CCO)c1C#N` (racemic) gave a pEC50 of 5.78. Consider `CCOC(=O)C1=C(N2CCOCC2CCO)N2N=C(c3ccc(Cl)cc3)CC2N=C1C` (racemic), for which the pEC50 amounted to 6.09.

As for `Cc1cc(N2CCCCC2CCO)n2nc(Cc3ccccc3)cc2n1` (racemic), the pEC50 came out at 5.24.

`Cc1nc(N2CCCCC2CCO)c2sc(-c3ccc(Cl)cc3)cc2n1` (racemic) came in with a pEC50 of 6.59. The same measure for `CSc1c(C)nc2cc(-c3ccc(Cl)cc3)nn2c1N1CCCC(C(=O)O)C1` (racemic): 6.93; for `Cc1cc(N2CCCC(C(=O)O)C2)n2nc(-c3ccc(Cl)cc3)cc2n1` (racemic): 5.32. The same measure for `Cc1cc(N2CCCCC2CCO)n2nc(-c3ccc(Cl)cc3)cc2n1` (racemic): 6.21; for `Cc1cc(N2CCCCC2CCO)n2nc(-c3cccc(Cl)c3)cc2n1` (racemic): 5.3; for `Cc1cc(N2CCCCC2CCO)c2cc(-c3ccc(Cl)cc3)oc2n1` (racemic): 5.92. The figure for `CC(=O)Nc1cccc(-c2cc(C)nc3cc(-c4ccc(Cl)cc4)nn23)c1` is 6.6.

As for `CC(=O)Nc1cccc(-c2c(S(C)(=O)=O)c(C)nc3cc(-c4ccc(Cl)cc4)nn23)c1`, the pEC50 came out at 6.42. The figure for `COc1ccc(-c2cc3nc(C)cc(N4CCCCC4CCO)n3n2)cc1` (racemic) is 5.25. The same measure for `CC(=O)Nc1cccc(-c2c([S+](C)[O-])c(C)nc3cc(-c4ccc(Cl)cc4)nn23)c1` (stereo not given): 6.19. The same measure for `Cc1nc(N2CCCCC2CCO)c2nc(-c3ccc(Cl)cc3)cn2n1` (racemic): 6.24; for `Cc1cc(NC2CCCCNC2=O)n2nc(-c3ccc(Cl)cc3)cc2n1` (racemic): 5.89; for `Cc1cc(N2CCOCC2CCO)n2nc(-c3ccc(Cl)cc3)cc2n1` (racemic): 5.61. In turn, `Cc1cc(NC2CCCNC2=O)n2nc(-c3ccc(Cl)cc3)cc2n1` (racemic) came in with a negative logarithm of the EC50 (pEC50) of 5.4. Consider `Cc1cc(N2CCCCC2CCO)c2sc(-c3ccc(Cl)cc3)cc2n1` (racemic), for which the pEC50 was determined as 6.22. The same measure for `CC(C)(C)c1cc(C(C)(C)C)c2c(c1)C(O)(C(F)(F)F)C(=O)O2` (racemic): 6.78; for `Cc1nc(N2CCCCC2CCO)n2nc(-c3ccc(Cl)cc3)cc2n1` (racemic): 6.63. The figure for `CSc1c(C)nc2cc(-c3ccc(Cl)cc3)nn2c1N1CCC[C@@H](C(=O)O)C1` is 7.15; for `Cc1cc(N2CCCCC2CCO)n2nc(-c3ccc(F)cc3)cc2n1` (racemic) it is 5.93.

`CC(=O)Nc1ccccc1-c1cc(C)nc2cc(-c3ccc(Cl)cc3)nn12` registered a pEC50 of 6.17. For the molecule `COc1nn(-c2ccc(F)c(NC(C)=O)c2)c(=O)n(Cc2ccc(Cl)c(F)c2)c1=O`, the negative logarithm of the EC50 (pEC50) was 6.89. The figure for `Cc1cc(N2CCCCC2CCO)n2nc(-c3ccc(C#N)cc3)cc2n1` (racemic) is 5.29; for `COc1c(C)nc2cc(-c3ccc(Cl)cc3)nn2c1N1CCCCC1CCO` (racemic) it is 7.05; for `Cc1ncc(-c2ccc(C(F)(F)F)cc2)c(N[C@@H]2C[C@H]3CC[C@@H]2C3)n1` it is 6.13. The same measure for `Cc1cc(N2CCCCC2C(=O)O)n2nc(-c3ccc(Cl)cc3)cc2n1` (racemic): 5.97. The figure for `Cc1nc2ccc(I)cc2c(N2CCCCC2)c1S(C)(=O)=O` is 5.83; for `CSc1c(C)nc2cc(-c3ccc(Cl)cc3)nn2c1-c1cccc(NC(C)=O)c1` it is 7.75; for `Cc1cc(N2CCCCC2CCO)n2nc(-c3ccccc3)cc2n1` (racemic) it is 5.91.
